Tests used:
CHO-K1 cells = assay: Rescue by exogenous native polyamines in CHO-K1 cells; format: cell-based, Chinese hamster; conditions: CHO-K1, toxic concentration of compound 10 (results not shown)
LAT-1 = molecular target: T1, LAT-1 (Homo sapiens, UniProt Q01650); assay: 3H-Leucine efflux assay; format: cell-based; conditions: L3.6pl
T1 construct: endogenous in cells; host or cells: L3.6pl human pancreatic cancer cells
Text: JPH203 is not toxic to L3.6pl cells over this concentration range and time interval. FIG. 10E is an example according to various embodiments, illustrating results obtained for a Leu uptake inhibition experiment with compound 10. Note: the y-axis in FIG. 10E is in CPM per ug of protein to normalize the data and account for any potential losses of cells due to toxicity of compound 10. FIG. 10F is an example according to various embodiments, illustrating results obtained for a Leucine efflux experiment with LAT-1 inhibitor JPH-203. Briefly, the efflux procedure involved cells pre-incubated with ‘hot’ leucine (3H labeled) and washed to remove unbound radiolabeled Leucine. The cells were then incubated in the presence and absence of unlabeled Leucine (100 μM) and/or the LAT-1 inhibitor JPH-203 (30 μM). In the presence of unlabeled leucine, the cells released ‘hot’ 3H-leucine into the media which was measured via scintillation/radioactivity counts. This efflux or release from within the cell was inhibited by the presence of the LAT-1 inhibitor, JPH-203 (30 μM, FIG. 10F). Since JPH203 inhibits the import of unlabeled leucine then less unlabeled Leucine will enter the cell and less efflux of radiolabeled Leucine molecules from inside the cell will be observed. This is consistent with JPH-203 being a LAT-1 inhibitor. FIG. 10G is an example according to various embodiments, illustrating results obtained for a two minute Leucine efflux experiment with compound 10. Cells were pre-incubated with ‘hot’ leucine (^3H labeled) and washed to remove unbound radiolabeled Leucine. The cells were then incubated in the presence and absence of unlabeled “cold” Leucine (100 μM) and/or the compound 10 (20 μM). In the presence of unlabeled ‘cold’ leucine, the cells released ‘hot’ ^3H-leucine into the media which was measured via scintillation/radioactivity counting. […] The efflux experiment was repeated and the time for monitoring efflux increased to 30 minutes. […] In summary, compound 10 inhibits Leucine uptake and facilitates LAT-1 mediated efflux.
^3H-Leucine Efflux Assay ^3H-Leucine efflux experiments were performed according to the protocol developed by Hälfliger et al. (2018) (referenced below) with the following changes. Briefly, cells were preloaded with 12 μM stock of L-[^3H]leucine (79 Ci/mmol) to give a final concentration of ^3H-leucine was 1.2 μM in each well. […] The medium was then collected and mixed with scintillation fluid (Scintiverse™ BD Cocktail) and radioactivity measured (Beckman Coulter LS 6500 Multi-Purpose Scintillation Counter). […] The lysate (300 μL) was mixed with scintillation fluid and radioactivity was counted. Relative efflux was expressed as percentage radioactivity=100%×(radioactivity of medium)/(radioactivity of the medium+radioactivity of the cells). […]

L3.6pl cells = assay: Attached cell count (hemocytometer) after 72 h; format: cell-based, human
Procedure: In parallel with the above experiments, a dose dependence experiment was performed looking at how compound 10 at 0, 2, 5 and 7 μM affected L3.6pl cell attachment and cell number after 72 h incubation at 37° C. Successively more detached cells were observed as the concentration of compound 10 increased, particularly from 5 μM to 7 μM.
Cells were incubated with compound 10 for 72 h at 37° C. A 250 μM AG solution was incubated with the cells for 24 h prior to compound addition. Each condition was performed in duplicate.
This example illustrates aspects according to various embodiments pertaining to a 72 h experiment with Compound 10 in L3.6pl cells. Ten milliliters of a cell suspension containing L3.6pl human pancreatic cancer cells (50,000 cells/mL) and aminoguanidine ([…]) were placed in treated plastic Petri dishes (d=9 cm) and incubated overnight at 37° C. After 24 h, the cells were dosed with compound 10 at 2 μM, 5 μM, or 7 μM. (Note: Stock solutions of 10 at 2, 5, and 7 mM were dissolved in phosphate buffered saline (PBS) and were filtered through a 0.2 μm filter prior to use. The experiments were maintained with a total volume of 10.01 mL where 10 mL of the cell suspension was placed in a plastic dish and each compound or the equivalent PBS volume was added to make up the total volume 10.01 mL for each dish. For example, for the control experiment PBS (10 μL) was added to make up the total volume (10 mL+10 μL=10.01 mL). After 72 h incubation, the cells were collected first by pipetting off the supernatant containing floating dead cells from the culture dish as well as media and placing them into 15 mL tubes. The supernatant containing floating cells was centrifuged (4 min at 1,000 rpm). The cell-free supernatant (supernatant #1) was collected into a new 15 mL tube and quantified (˜8.6 mL) and was then stored frozen and was later quantified by LCMS to investigate the media composition of particular polyamine and amino acid analytes. The attached cells on the dish were washed with PBS (5 mL). The PBS wash was removed by suction and additional PBS (2 mL) was added and again suctioned off to provide twice-washed cells still adhered to the dish. Trypsin (2 mL) was then added to each dish and incubated (3-5 min) until all the cells were detached. Fresh media (8 mL) was added to quench the trypsin. The cell solutions were pipetted into separate 15 mL tubes and centrifuged (4 min at 1,000 rpm). The resulting supernatant was removed to provide a pellet. The pellet was suspended in PBS (10 mL) and was counted by a hemocytometer to provide cell counts for each experimental condition. The pellet was then centrifuged (4 min at 1,000 rpm) and the supernatant removed and the remaining pellet was quantified via protein and polyamine analysis.

T1 sequence (Q01650 whole entry): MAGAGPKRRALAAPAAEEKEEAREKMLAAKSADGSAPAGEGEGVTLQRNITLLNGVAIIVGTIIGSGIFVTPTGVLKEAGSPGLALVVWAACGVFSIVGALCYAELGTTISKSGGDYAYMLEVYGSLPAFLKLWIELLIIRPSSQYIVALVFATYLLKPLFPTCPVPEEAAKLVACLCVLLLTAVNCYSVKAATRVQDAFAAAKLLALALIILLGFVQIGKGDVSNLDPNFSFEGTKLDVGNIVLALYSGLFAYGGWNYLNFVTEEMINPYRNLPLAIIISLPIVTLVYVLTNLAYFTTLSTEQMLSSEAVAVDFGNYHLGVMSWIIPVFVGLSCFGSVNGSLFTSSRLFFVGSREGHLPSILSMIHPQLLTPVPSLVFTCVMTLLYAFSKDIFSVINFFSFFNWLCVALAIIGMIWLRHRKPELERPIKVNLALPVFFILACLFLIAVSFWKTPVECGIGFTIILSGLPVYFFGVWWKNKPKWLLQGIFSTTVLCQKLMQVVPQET
T1 sequence (P08195 102-630 partner): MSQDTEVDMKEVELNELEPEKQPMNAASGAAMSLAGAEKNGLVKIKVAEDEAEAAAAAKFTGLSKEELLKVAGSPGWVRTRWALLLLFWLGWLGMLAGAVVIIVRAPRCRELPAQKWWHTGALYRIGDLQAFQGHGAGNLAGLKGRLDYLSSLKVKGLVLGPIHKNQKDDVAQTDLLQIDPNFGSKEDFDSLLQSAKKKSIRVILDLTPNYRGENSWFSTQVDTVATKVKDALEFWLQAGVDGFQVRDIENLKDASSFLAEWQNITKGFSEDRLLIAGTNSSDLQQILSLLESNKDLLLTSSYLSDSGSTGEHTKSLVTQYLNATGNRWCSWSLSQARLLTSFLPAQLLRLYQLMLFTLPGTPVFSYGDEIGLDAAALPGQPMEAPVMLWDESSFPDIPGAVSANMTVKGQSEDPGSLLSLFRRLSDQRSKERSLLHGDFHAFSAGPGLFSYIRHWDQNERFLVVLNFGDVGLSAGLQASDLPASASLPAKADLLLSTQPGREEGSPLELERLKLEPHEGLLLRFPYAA

3H-leucine efflux, compound alone (LAT-1; 2 min, JPH-203 30 μM or compound 10 20 μM): slight increase in efflux
efflux of radiolabeled leucine (LAT-1; 30 minutes, in presence and absence of leucine (1 μM), vs untreated control (FIG. 10H)): increased efflux
SMILES: CC(C)CCN1CCN(C(CNCc2ccccc2)CC2CCCCC2)CC1CC(C)C.Cl.Cl.Cl (centres unmarked) [Compound 10, Benzyl-{3-cyclohexyl-2-[3-isobutyl-4-(3-methyl-butyl)-piperazin-1-yl]-propyl}-amine trihydrochloride salt]
rescue of treated cells by native polyamines (CHO-K1 cells): unable to rescue
Cell Count (L3.6pl cells; 2 μM): 9.40 millions
Cell Count (L3.6pl cells; 5 μM): 4.35 millions
loss of the attached cell population (L3.6pl cells; 5 μM): 58%
Cell Count (L3.6pl cells; 7 μM): 2.10 millions
loss of the attached cell population (L3.6pl cells; 7 μM): 80%

Reference: patent US20210317090A1, “AMINO ACID DEPLETION AGENTS AS ANTIPROLIFERATIVE AGENTS” (University of Central Florida Research Foundation, Inc., priority 2018, published 2021)
